Experimental data taken from PubChem BioAssay (NCI).
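Tested at 5 concentrations; 48 h exposure; 96-well plates; endpoints linearly interpolated, else capped at highest concentration. TGI is the concentration that stops growth completely.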

How the values were obtained:
Test in all cases: NCI anticancer screen, dose series, 48 h
OVCAR-3 ovarian = system: OVCAR-3 ovarian
M14 melanoma = system: M14 melanoma
OVCAR-8 ovarian = system: OVCAR-8 ovarian
SN12C renal = system: SN12C renal
MDA-N = system: MDA-N
SF-268 CNS = system: SF-268 CNS
DU-145 prostate = system: DU-145 prostate
NCI-H23 lung = system: NCI-H23 lung
BT-549 breast = system: BT-549 breast
ACHN renal = system: ACHN renal
KM12 colon = system: KM12 colon
UACC-62 melanoma = system: UACC-62 melanoma
HCT-116 colon = system: HCT-116 colon
SK-OV-3 ovarian = system: SK-OV-3 ovarian
NCI-H522 lung = system: NCI-H522 lung
SF-539 CNS = system: SF-539 CNS
HCC-2998 colon = system: HCC-2998 colon
LOX IMVI melanoma = system: LOX IMVI melanoma
SK-MEL-28 melanoma = system: SK-MEL-28 melanoma
SW-620 colon = system: SW-620 colon

Structure (SMILES) | TGI (OVCAR-3 ovarian) | TGI (M14 melanoma) | TGI (OVCAR-8 ovarian) | TGI (SN12C renal) | TGI (MDA-N) | TGI (SF-268 CNS) | TGI (DU-145 prostate) | TGI (NCI-H23 lung) | TGI (BT-549 breast) | TGI (ACHN renal) | TGI (KM12 colon) | TGI (UACC-62 melanoma) | TGI (HCT-116 colon) | TGI (SK-OV-3 ovarian) | TGI (NCI-H522 lung) | TGI (SF-539 CNS) | TGI (HCC-2998 colon) | TGI (LOX IMVI melanoma) | TGI (SK-MEL-28 melanoma) | TGI (SW-620 colon)
CC(=O)Nc1cc(C(=O)Nc2cc(C(=O)N3CC(CCl)c4c3cc(N)c3ccccc43)nn2C)nn1C (configuration not stated) | 2.61 µM | 2.07 µM | 0.308 µM | 0.0102 µM | 0.389 µM | 0.128 µM | 0.018 µM | 0.0678 µM | 0.883 µM | 0.0892 µM | 7.83 µM | 0.0631 µM | 0.412 µM | 5.96 µM | 0.0181 µM | 0.0549 µM | 0.491 µM | 1.07 µM | 0.154 µM | 
C[C@@H]1C[C@H]2[C@@H]3CCC4=CC(=O)C=C[C@]4(C)[C@@]3(Cl)[C@@H](Cl)C[C@]2(C)[C@@]1(O)C(=O)COP(=O)(O)O | > 100 µM | > 100 µM | > 100 µM | 33.1 µM | > 100 µM | > 100 µM | > 100 µM | > 100 µM | > 100 µM | > 100 µM | > 100 µM | > 100 µM | > 100 µM | > 100 µM | > 100 µM |  | > 100 µM | > 100 µM | > 100 µM | > 100 µM
COc1ccc2nc3ccc(OC)cc3c(S(=O)CCCl)c2c1 (configuration not stated) | 6.24 µM | 15.3 µM | 9.2 µM | 3.72 µM | 7.58 µM | 28.2 µM | 4.66 µM | 36.1 µM | 30.3 µM | 3.62 µM | 37.3 µM | 32.1 µM | 3.39 µM | 40.2 µM | 3.23 µM | 4.59 µM | 46.7 µM | 6.81 µM | 12.4 µM | 
C[N+](C)([O-])CCC=C1c2ccccc2CCc2ccccc21 | 58.8 µM | > 100 µM | 52.6 µM | 62.9 µM | 65.3 µM | 54.6 µM | 70.9 µM | > 100 µM | > 100 µM | > 100 µM | 36.3 µM | 41.2 µM | > 100 µM | > 100 µM | 34.4 µM | > 100 µM |  | 2.7 µM | 98.7 µM | 62.3 µM
CC(=O)OCc1cc(CCC(=O)NCCNc2c3ccccc3nc3ccccc23)cc(COC(C)=O)c1O[Si](C)(C)C(C)(C)C | 5.68 µM | 23.2 µM | 39.9 µM | 3.38 µM | 21.9 µM |  | 28.1 µM | 34.7 µM | 34.2 µM | 30.6 µM | 15.4 µM | 19.5 µM | 31.1 µM | 27.7 µM | 21.8 µM | 4.99 µM |  | 3.58 µM | 18.2 µM | 30.1 µM
CN(C)Cc1cc(C(=O)/C=C/c2ccc(Cl)cc2)cc(CN(C)C)c1O | 10.8 µM |  | 51.3 µM | 28.1 µM | 25.3 µM | 71.1 µM | 24.4 µM | 39.4 µM | 11.3 µM | 16.1 µM | 19.6 µM |  | 26.5 µM |  | 10.8 µM | 38.7 µM | 34.1 µM | 15.3 µM | 26.4 µM | 20.5 µM
CN1C(=O)N/C(=C\c2ccc(S(=O)(=O)NN)cc2)C1=O | > 100 µM | > 100 µM | > 100 µM | > 100 µM | > 100 µM | > 100 µM | > 100 µM | > 100 µM | > 100 µM | > 100 µM | > 100 µM | > 100 µM | > 100 µM | > 100 µM |  |  | > 100 µM | > 100 µM | > 100 µM | > 100 µM
Cc1cccc(-c2nc3ccc([N+](=O)[O-])cc3c(=O)o2)c1 | > 100 µM |  | > 100 µM | > 100 µM | > 100 µM | > 100 µM | > 100 µM | > 100 µM | > 100 µM | > 100 µM | > 100 µM | > 100 µM | > 100 µM | > 100 µM | > 100 µM | > 100 µM | > 100 µM | > 100 µM | > 100 µM | > 100 µM
CC(C)(C)C(=O)OCC1CCC[N+]2(C)CCCCC12 (configuration not stated) | > 100 µM | > 100 µM | > 100 µM | > 100 µM | > 100 µM | > 100 µM | > 100 µM | > 100 µM | > 100 µM | > 100 µM | > 100 µM | > 100 µM | > 100 µM | > 100 µM |  | > 100 µM | > 100 µM | > 100 µM | > 100 µM | > 100 µM
Cc1cc(N(CCC#N)CCC#N)ccc1/C(N=Nc1ccc([N+](=O)[O-])cc1)=N\NC(=O)c1cc(Cl)ccc1C(=O)c1ccccc1 | > 100 µM | > 100 µM | 26.1 µM | > 100 µM | > 100 µM | 42.3 µM | 56.8 µM | 38.6 µM | > 100 µM | > 100 µM | 47.8 µM | 36.9 µM | 23.6 µM | > 100 µM | 6.17 µM |  | 30.3 µM |  | > 100 µM | 82.2 µM
CC(C)C1OC23CCCCC2C(C#N)(C#N)C1(C#N)C(=N)O3 (configuration not stated) | 59.8 µM | 29.8 µM | 49.8 µM | 31.4 µM | 32.7 µM | 46.6 µM | 94.8 µM | 85.8 µM | 39.8 µM | > 100 µM |  | 58 µM | 39.8 µM | > 100 µM |  | 39.4 µM | 29.6 µM | 54 µM | 87.3 µM | 99.3 µM
O=C(CCCn1ccnc1[N+](=O)[O-])NCCn1cncc1[N+](=O)[O-] | > 100 µM | > 100 µM | > 100 µM | > 100 µM | > 100 µM | > 100 µM | > 100 µM | > 100 µM | > 100 µM | > 100 µM | > 100 µM | > 100 µM | > 100 µM | > 100 µM | > 100 µM | > 100 µM |  | > 100 µM | > 100 µM | > 100 µM
